Results published in patent US20260275242A1, “PHOSPHONATE-FREE CHELATING AGENTS AND METHODS FOR FABRIC CARE” (THE PROCTER & GAMBLE COMPANY, priority 2023, published 2026).

Legend:
Type in all cases: physicochemical
[1] = Iron binding efficiency, logK(β110) (Table 1); details: one metal, one ligand, no protons
Source text: (§1) The binding efficiencies may be expressed as a binding constant. A binding constant (also called formation constant or stability constant) is an equilibrium constant for the formation of a complex in solution. It is a measure of the strength of the interaction between the reagents that come together to form the complex. As an example, various stains may comprise catechins as shown in Formula (13).
(§2) In Table 1, the reaction between metals and ligands is described in terms of log K(β110). In this context, K, is the equilibrium constant for the reaction between ligands and metals. The higher K, the more metal is bound. This is illustrated in the following example.
(§3) β, represents the binding efficiency and receives some subscripts (βmlh) to indicate how many metals (m), ligands (l), and protons (h) respectively are involved.

[2] = pKa of chelating agents (Table 1); details: successive pKa values; (A)/(B) printed beside the catechin values
Source text: Chelation is a type of bonding of ions and molecules to metal ions. It involves the formation or presence of two or more separate coordinate bonds between a ligand and a metal atom. Without being bound by theory, the stain removal effectiveness of a composition comprising one or more chelating agents may depend at least in part on the ability of the chelating agent(s) to bind to iron, which may be present in some stains, such as fruit or beverage stains. Several factors may impact a chelating agent's ability to bind to iron. These factors may include the pKa of the chelating agent compared to the wash pH, and the affinity of the chelating agent to bind with other metals, materials, or compositions in the wash.
Various embodiments may provide or employ a composition that comprises one or more chelating agents having a pKa that is near to or less than the wash pH. […] Various embodiments may also employ a wash liquor pH of about 10 or less, about 9.5 or less, less than about 9, preferably from about 6.5 to about 8.5, most preferably from about 7.0 to about 8.5. They may also include the step of maintaining the pH of the wash liquor at about 10 or less, about 9.5 or less, less than about 9, preferably from about 6.5 to about 8.5, most preferably from about 7.0 to about 8.5.

[3] = Calcium binding efficiency, logK(β110) (Table 1); details: one metal, one ligand, no protons
Source text: as §1, §2, §3

Compound | Fe (III) logK(β110) [1] | pKa [2] | Ca^2+ logK(β110) [3]
CCOC(=O)c1cc(O)c(O)c(O)c1 [Ethyl Gallate] | 14.7 | 8.7 | 6.7
COC(=O)c1cc(O)c(O)c(O)c1 [Methyl Gallate] | 14.7 | 8.7 | 6.7
